Results taken from patent US20250340537A1, “PHARMACEUTICALLY ACTIVE COMPOUNDS, COMPOSITIONS, AND METHODS FOR MODULATING PENDRIN” (ARBORMED Co., Ltd., priority 2022, published 2025).

Tested on: pendrin in patient nasal epithelial cells
Test: Patient-derived cell-based (PDC) assay, immunofluorescence staining of pendrin
Set-up: species or system human
Conditions: 10 μM; for Pendrin expression on epithelial cell membrane, immunofluorescence staining: FIG. 2A; for Mean fluorescence intensity (pendrin expression intensity) vs vehicle and IL-4 groups: FIG. 2B, *p<0.05
Experimental: The experimental approach is grounded in a multi-step process aimed at investigating the effects of drug treatments on nasal epithelial cells. Initially, nasal tissues are collected and processed to isolate epithelial cells through tissue lysis. These cells are then cultured and subjected to Air-Liquid Interface (ALI) conditions for an extended period. Following this, drug treatments involving human IL-4 and Pendrin corrector drugs are administered, and protein harvesting is conducted for subsequent analysis. The expression of the pendrin antibody ‘hR1 (YONSEI ENT Choi lab.)’ is confirmed through Western blot analysis after drug treatments. Additionally, immunofluorescence staining is performed on Transwell membranes from different drug concentrations, and the resulting cryosections are subjected to confocal microscopy using the primary antibody ‘hR2 (YONSEI ENT Choi lab.)’. This comprehensive methodology allows for the visualization and analysis of pendrin expression in both basal and apical regions of nasal epithelial cells, providing insights into the impact of drug treatment on the targeted cellular components.
Nasal tissue were collected from patients and placed in DMEM:F12 (Lonza Cat No. 12-719F) supplemented with 1% penicillin-streptomycin in Transfer media. After removing red blood cells with PBS, tissues were subjected to tissue lysis with 1% protease in transfer media at 37° C. for 1 hour, resulting in the isolation of epithelial cells.
The obtained epithelial cells were conventionally cultured up to passage 1 in BEGM Bulletkit (Lonza Cat No. CC3170) supplemented with BSA 150 mg/ml and EGF (BD Cat No. 354001). Once reaching approximately 90% confluency, cells were detached using 0.25% Trypsin EDTA and seeded onto 12-well Transwell plates (Costar Cat No. 3450) in a 1:1 mixture of DMEM media (Lonza Cat No. 12-707F) and BEGM Bulletkit supplemented media for Air-Liquid Interface (ALI) culture.
ALI culture was initiated by adding 1 ml of media to the bottom and seeding 0.5 ml of cells on the membrane. When cells on the membrane reached 90% confluency, the bottom was filled with culture media supplemented with 50 nM Retinoic acid (RA, SIGMA Cat No. R2625), and ALI culture was performed for 7-14 days.
Subsequent to ALI culture, cells were treated with human IL-4 at […] for 24 hours, followed by treatment with ‘Compound 9, Compound 18 and Compound 105’ Pendrin corrector drugs at concentrations of 0.1, 0.3, 1, 3, 10 μM for 24 hours. After drug treatment, cells attached to the Transwell membrane were harvested by scraping into protein buffer (iNtRON Cat No. 17081). Protein quantification ([…]) was performed for each sample and the expression of the pendrin antibody ‘hR1 (YONSEI ENT custom antibody)’ was confirmed through Western blot analysis.
For immunofluorescence staining, Transwell membranes from each drug-treated concentration were fixed in 4% paraformaldehyde (PFA) at room temperature for 10 minutes. Subsequently, they were cut into three pieces using a microtome, embedded in OCT compound and processed in to 5 μm cryosections. Immunostaining using the primary antibody ‘hR2 (YONSEI ENT custom antibody)’ was conducted, and the pendrin expression in the basal and apical regions of epithelial cells was visualized using confocal microscopy (Carl Zeiss, LSM700).

SMILES: NC1=C(c2cncc(-c3ccc(O)c(O)c3)n2)C(=O)CN1c1ccccc1Cl [Compound 9]
- Pendrin expression on epithelial cell membrane, immunofluorescence staining: clear red fluorescence
- Mean fluorescence intensity (pendrin expression intensity) vs vehicle and IL-4 groups: significant difference

SMILES: NC1=C(c2cncc(-c3ccc(O)c(O)c3)n2)C(=O)CN1CC1CCCC1 [Compound 18]
- Pendrin expression on epithelial cell membrane, immunofluorescence staining: clear red fluorescence
- Mean fluorescence intensity (pendrin expression intensity) vs vehicle and IL-4 groups: significant difference

SMILES: COc1cc(-c2nccc(C3=C(N)N(CC4CCCC4)CC3=O)n2)ccc1O [Compound 105]
- Pendrin expression on epithelial cell membrane, immunofluorescence staining: clear red fluorescence
- Mean fluorescence intensity (pendrin expression intensity) vs vehicle and IL-4 groups: significant difference
